Measurements: patent US5189212A, “Triarylethylene carboxylic acids with estrogenic activity” (University of Georgia Research Foundation, Inc., priority 1990, dated 1993)
“Also recorded” adds a separate entry of the source.

Tests used:
estrogen receptor = biological target: T1, estrogen receptor (Rattus norvegicus, UniProt P06211); assay: Estrogen receptor affinity: competition with [3H]estradiol binding in rat uterine cytosol; conditions: for estrogen receptor affinity relative to estradiol (affinity=100): estradiol = 100
T1 construct: Uteri from Sprague-Dawley rats (200-250g) are homogenized; from tissue; host or cells: rat uterus, 100000g supernatant (cytosol), Sprague-Dawley
T1 sequence (P06211 1-600): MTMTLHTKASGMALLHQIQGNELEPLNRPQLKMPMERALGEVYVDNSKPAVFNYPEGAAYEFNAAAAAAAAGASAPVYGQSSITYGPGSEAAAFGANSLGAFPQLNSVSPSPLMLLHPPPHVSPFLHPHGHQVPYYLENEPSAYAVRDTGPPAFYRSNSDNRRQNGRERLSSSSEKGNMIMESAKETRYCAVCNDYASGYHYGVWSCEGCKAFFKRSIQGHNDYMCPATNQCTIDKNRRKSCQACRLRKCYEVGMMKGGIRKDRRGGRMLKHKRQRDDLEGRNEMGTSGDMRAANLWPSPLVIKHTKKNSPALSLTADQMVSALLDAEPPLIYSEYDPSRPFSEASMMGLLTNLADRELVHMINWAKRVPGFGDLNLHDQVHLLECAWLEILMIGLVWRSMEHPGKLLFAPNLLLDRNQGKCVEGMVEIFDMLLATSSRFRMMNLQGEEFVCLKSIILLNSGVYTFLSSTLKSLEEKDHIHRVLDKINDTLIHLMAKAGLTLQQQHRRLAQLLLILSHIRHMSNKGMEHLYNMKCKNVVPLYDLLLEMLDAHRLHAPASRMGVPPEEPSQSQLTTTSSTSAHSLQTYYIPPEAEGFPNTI
Procedure: The estrogen receptor affinity of the triarylethylenes of Formula I can be measured according to the method of Ruenitz, et.al., J. Med. Chem., 25:1056, (1982).
[^3 H]Estradiol (58 Ci/mmol) can be obtained from Amersham Corp., and its radiochemical purity checked by TLC. Uteri from Sprague-Dawley rats (200-250g) are homogenized (1 uterus/2 mL) in ice-cold 10 mM Tris buffer, pH 7.4, that contains 1.5 mM EDTA and 3 mM sodium azide (TEA buffer). The homogenate is centrifuged at 100000g for 1 hour at 4° C. Incubation mixtures should contain 200-μμL aliquots of the supernatant, and 10 μL of a solution of 1.1×10^-7 M [^3 H]estradiol in dimethylacetamide, and 10 μL unlabeled competitor in dimethylacetamide. Ten concentrations of competitor are used ranging from 1×10^-9 to 5×10^-5 M. Control incubations should contain 10 μL of solvent alone. Nonspeoifio binding is determined in similarly prepared incubations that contain 1×10^-5 M estradiol. Incubations should be performed in triplicate, in 5-mL polypropylene centrifuge tubes, at 2°- 4° C. for 4 hours. Then a suspension of 400 μL of dextran-coated charcoal [0.1% dextran (Sigma no. D-1390), 1% acid-washed Norit A in TEA buffer]is added, and the incubation continues for 15 minutes at 2°-4° C. Tubes are then centrifuged at 1000g for 10 minutes, and 400-μL aliquots are dissolved in 5 mL of Scintivense (Fisher), Bound [^3 H]estradiol is determined by liquid scintillation spectrometry. Quench corrections are made by the external standard method.
The estrogen receptor affinity of 4-hydroxy tamoxifen acid was measured according to the assay described in Example 2. FIG. 2 is a graph of the effect of increasing concentrations (nM) of 4-HTA (--.quadrature.--), estradiol (--O--), and TA (-- --) on the binding of [^3 H]estradiol in uterine cytosol from immature rats. Specifically bound ^3 H from [^3 H]estradiol is plotted as a percentage of that bound in control incubations in the absence of 4-HTA, estradiol, or TA. Estradiol and tamoxifen, the non-hydroxylated analog of 4-HTA, were used as standards.

MCF7 breast cancer cells = assay: Reversal of the inhibitory effect of tamoxifen on MCF 7 cell growth; type: cell-based, human; conditions: 1 μM tamoxifen, FIG. 4
Procedure: Cells were grown as summarized in Example 4 and tamoxifen was added to flasks as a solution in DMSO […], as were increasing concentrations of TA or 4-HTA.

[1] = tested on: UDP glucuronyl transferase; assay: Rat liver microsomal glucuronidation; conditions: for Vmax: detergent-activated rat liver microsomes, 37° C., 30 min, average of two to three experiments; for substrate for UDP glucuronyl transferase: rat liver microsomes, in vitro
[2] = tested on: MCF 7 human breast cancer cells; assay: Effect on proliferation of MCF 7 cells grown in the presence of estrogens; conditions: cell numbers after five days, FIG. 3
Procedure: The antiestrogenic effect of the nonsteroidal triarylethylene compounds of Formula I is measured by comparing the growth of MCF7 breast cancer cells in the presence and absence of the compounds, according to the method described below for 4-hydroxy tamoxifen acid.
Cell numbers were determined five days later, after approximately four population doublings in drug free controls. Data shown are expressed as percentages of cell numbers in control flasks and are averages of six estimates from two separate experiments.

[3] = Rat liver microsomal glucuronidation; conditions: rat, liver microsomes
MCF 7 cells = assay: Stimulation of MCF 7 cell proliferation in estrogen free medium; type: cell-based, human; conditions: nine days, FIG. 5
Procedure: Cells were conditioned as described in Example 2, and then withdrawn from estrogen stimulation and incubated with phenol red free medium prepared with charcoal-stripped fetal calf serum. After five days, medium was changed and 4-HTA or estradiol were added as described in Example 2. After nine days, cell numbers were determined.
Each point is the average of 3-6 determinations. […] These findings indicate that 4-HTA is a pure estrogen with no residual estrogen antagonist activity.

[4] = Distribution and elimination of TA and 4-HTA after intraperitoneal [14C]TAM in immature female rats; type: in vivo, rat; conditions: for Percent of Dose Present as: Total 14C: i.p. [14C]TAM, rat, values ±5%
Procedure: Animals and Dosing. Female Sprague-Dawley rats, 45-55 grams each, were maintained on a normal laboratory diet and were divided into groups of four to six per experiment. […] This solution was prepared by dissolving the drug in 10 ml of 1% citric acid in N,N-dimethylacetamide and diluting the solution with 0.2 ml of 1.15% aqueous KCl just before use. Animals were housed in polycarbonate metabolism cages equipped for separate collection of urine and feces.
Processing of Biological Samples. At 24 and 48 hours after dosing, animals were killed by decapitation. Uteri and livers were removed and weights were recorded. Pooled uteri, and livers were homogenized in 10 volumes of methanol. Each homogenate was centrifuged at 400×g for 10 min. Triplicate 1.0 ml aliquots of supernatants were counted for radioactivity in 8 ml of Ecoscint (National Diagnostics, Somerville, N.J.). Collected urine was lyophilized. The residue was sonicated in methanol, and the mixture was filtered and the solid residue was washed with methanol to make the final volume equal to the original urine volume. This procedure removed endogenous polar materials with no loss of radioactivity. Feces collected 24 and 48 hr after dosing were homogenized in 10 volumes of methanol. The homogenate was centrifuged and analyzed for radioactivity as described above.
Extraction and Analysis. Unlabelled TA and 4-HTA […] were added as standards to methanol extracts of tissues, urine, and feces. A third standard, TA glyOH, was added only to the urine extract. Each solution was then concentrated under a stream of N2. To each residue was added 0.5 ml of 1% aqueous NaOH. The resulting mixture (pH≥11) was extracted serially two times with 1.0 ml portions of ether. Radioactivity present in these extracts was determined. To the aqueous phase was added 0.1 ml of 10% HCl, and the mixture (pH≤1) was extracted as before. Radioactivity was determined in some of these extracts. Otherwise, they were concentrated under a stream of N2. Each residue was dissolved in […] of acetone and the solution was applied to a TLC plate. Developed plates were segmented using the locations of reference compounds under UV light of 254 nm wavelength for guidance. Radioactivity was determined in segments containing reference compounds, and in some cases in all segments from TLC plates.
The specific activity of TA and 4-HTA eluted from developed chromatograms was determined by immersion of the segments containing these metabolites in a solution of 2.8% ammonia in methanol for 12 hr. Radioactivity in aliquots of eluates was determined, and quantities of TA and 4-HTA were estimated from absorbance of solutions at 283 nm using e283 =1.2×10^4 M^-1 cm-^-1 for each compound. Subsequent processing of eluates was conducted according to methods known in the art.

[5] = tested on: UDP glucuronyl transferase; conditions: rat, microsomes, 0.5 h

Compound | estrogen receptor affinity relative to estradiol (affinity=100) (estrogen receptor) | Vmax [1] [nmols/mg-min] | Km at 0.5 h [3] [µM] | substrate for UDP glucuronyl transferase [1] | reversal of the growth inhibitory effect of TAM on MCF 7 cells (MCF7 breast cancer cells) | inhibition of growth/proliferation of MCF 7 human breast cancer cells [2] | other results
CCC(=C(c1ccc(O)cc1)c1ccc(OCC(=O)O)cc1)c1ccccc1 [4-HTA, (E,Z)-2-{4-[1-(p-hydroxyphenyl)-2-phenyl]-1-butenyl}phenoxyacetic acid] | 21 | 0.0 |  | not a substrate | both compounds reverse the growth inhibitory effect; also recorded: reversed in a dose dependent manner | Neither tamoxifen acid nor 4-HTA inhibits the growth; also recorded: no effect on proliferation | estrogen receptor affinity as percent of that of estradiol (estrogen receptor; [3H]estradiol, uterine cytosol from immature rats, FIG. 2): 21%; maximal level of MCF 7 growth stimulation compared with estradiol (MCF 7 cells): stimulated growth to the same level as did estradiol; stimulation of MCF 7 cell growth (MCF 7 cells; submicromolar concentrations): dose dependent stimulation of growth; urinary elimination form ([4]; immature female rat): eliminated unchanged in the urine; presence in uterine or ovarian tissue ([4]; immature female rat, after [14C]TAM): not detected in uterine or ovarian tissue
4-hydroxytamoxifen [4-HT] |  | 7.4 |  |  |  |  | Km [5]: 83 µM
CC/C(=C(\c1ccccc1)c1ccc(OCCN(C)C)cc1)c1ccccc1 [TAM, (Z)-2-[4-(1,2-diphenyl-1-butenyl)phenoxy]-N,N-dimethylethanamine] |  |  |  |  |  | potent inhibitor of cell growth | Percent of Dose Present as: Total 14C ([4]; feces, 0-24 hr after dosing): 30.49%; Percent of Dose Present as: Total 14C ([4]; feces, 24-48 hr after dosing): 16.05%; Percent of Dose Present as: Total 14C ([4]; liver, 24 hr after dosing): 20.25%; Percent of Dose Present as: Total 14C ([4]; liver, 48 hr after dosing): 2.84%; Percent of Dose Present as: Total 14C ([4]; urine, 0-24 hr after dosing): 8.70%; Percent of Dose Present as: Total 14C ([4]; uterus, 24 hr after dosing): 0.12%

More lines, main results first:

estrogen receptor affinity relative to estradiol (affinity=100) (estrogen receptor) | Vmax [1] [nmols/mg-min] | Km at 0.5 h [3] [µM] | substrate for UDP glucuronyl transferase [1] | Compound | reversal of the growth inhibitory effect of TAM on MCF 7 cells (MCF7 breast cancer cells) | inhibition of growth/proliferation of MCF 7 human breast cancer cells [2] | other results
0.01 | 0.0 |  |  | CCC(=C(c1ccccc1)c1ccc(OCC(=O)O)cc1)c1ccccc1 [TA, (E,Z)-4-(1,2-diphenyl-1-butenyl)phenoxyacetic acid] | to a lesser extent | Neither tamoxifen acid nor 4-HTA inhibits the growth | binding to the estrogen receptor (estrogen receptor; FIG. 2): also binds to the estrogen receptor; reversal of the growth inhibitory effect of TAM on MCF 7 cells (MCF7 breast cancer cells; listed as tamoxifen acid): both compounds reverse the growth inhibitory effect
 | 16.5 | 73 | excellent substrate | CCC(=C(c1ccc(O)cc1)c1ccc(OCC(=O)OC)cc1)c1ccccc1 [Methyl 4-HTA] |  |  | 
 | 14.7 | 54 |  | CCC(=C(c1ccc(O)cc1)c1ccc(O)cc1)c1ccccc1 [TAM bis-phenol, 1,1-bis-(4-hydroxyphenyl)-2-phenyl-1-butene] |  |  | 
